Assays:
[1] = system: human recombinant IL-6/IL-6sR induced joint pain; assay: IL-6 with IL-6 soluble receptor induced joint pain in rat; assay type: in vivo
Protocol: It should be appreciated that in Biological Methods 1, 2, 4, and 5 below, hind paw weight bearing differentials between the paw of the limb having the control joint (in animals administered test compound vehicle only) and the paw of the limb having the contralateral test joint (in control or inducement animals administered test compound vehicle only and in treatment animals administered test compound dissolved in test compound vehicle) were determined using an incapacitance tester, model 2KG (Linton Instrumentation, Norfolk, United Kingdom). The incapacitance tester has a chamber on top with an outwardly sloping front wall that supports a rat's front limbs, and two weight sensing pads, one for each hind paw, that facilitates this determination. The hind paw weight bearing differentials were expressed in grams and calculated as follows: (the average weight in grams placed on the control limb minus the average weight in grams placed on the contralateral test limb for each of the inducement or treatment animals) minus (the average weight in grams placed on the control limb minus the average weight in grams placed on the contralateral test limb for each of the control animals). All results were statistically analyzed by comparing the average results for an induction or treatment group with the average result for its control group at the same time point using analysis of covariance (“ANCOVA”) followed by the Hoehberg's procedure and those with statistical significance had p<0.05 unless otherwise noted.
Human recombinant IL-6 (100 ng per rat; R&D Systems, Minneapolis, Minn.) was incubated at room temperature with human recombinant IL-6 soluble receptor (300 ng per rat; R&D Systems, Minneapolis, Minn.) in phosphate buffered saline (“PBS”) for 15 minutes prior to injection. Rats were anesthetized with 5% volume/volume (“v/v”) isoflurane gas and maintained with 2% v/v isoflurane gas. The anesthetized rats were given a single intra-articular injection of IL-6/WL-6sR through the infrapatellar ligament of the right knee in a volume of 50 μL. The contralateral control knee was injected with 50 μL of PBS. Administration of isoflurane gas was discontinued, and the rats became fully conscious about 5 minutes later.
Shifts in hind paw weight distribution from the right (arthritic) to the left (contralateral control) paws were utilized as an index of joint pain and as a measure of compound efficacy. An incapacitance tester (Model 2KG, Linton Instrumentation, UK) was employed for determination of hind paw weight distribution. Each data point is the mean of three, 5-second readings.
CI-1027 was dissolved in BPMC vehicle as described above. Baseline changes in hind paw weight distribution readings were determined one day prior to injection of IL-6/IL-6sR. On the day of the experiment (Day 0), a single dose of CI-1027 (10, 30 or 100 mg/kg) was given via oral gavage 3 hours prior to injection of IL-6/IL-6sR (n=10 rats per group). Changes in hind paw weight distribution were determined one, three, and six hours after injection of IL-6/IL-6sR.
In Table 4 below, data from the method of Biological Method 5 are expressed as a percent inhibition of a change in hind paw weight distribution ± the standard error of the mean. The percents inhibition were calculated as follows. Percent inhibition of a change in hind paw weight distribution [formula] wherein: ΔWC is the hind-paw weight differential between the healthy limb and the hrIL-6+ hrIL-6sR injected limb of the control animal group administered vehicle alone, as measured at time 1, 3, or 6 hours post injection; and
ΔWG is the hind-paw weight differential between the healthy limb and the hrIL-6+ hrIL-6sR injected limb of a treatment animal group as measured at time 1, 3, or 6 hours post injection.

[2] = system: leukotriene B4 (LTB4) expression; assay: LTB4 expression from calcium ionophore-stimulated rat basophilic leukemia cells; assay type: cell-based
[3] = system: carrageenan-induced thermal hyperalgesia; assay: Carrageenan-induced thermal hyperalgesia (CITH), paw withdrawal latency; assay type: in vivo, rat; details: single oral dose 30 mg/kg on Day 1, 4 hours post dose
Protocol: Male Sprague Dawley rats (200-300 g), obtained from Charles River, were housed in groups of 2 under a 12 hour light/dark cycle with food and water ad libitum. Animals were allowed to acclimate to the test room one hour prior to testing.
Thermal hyperalgesia was assessed using the rat plantar test (apparatus from Univ. California, San Diego) following a modified method of Hargreaves et al., 1988. Rats were habituated to the apparatus, which consisted of three perspex boxes that individually housed […] on an elevated glass table. A mobile radiant heat source (halogen lamp) was located under the glass table and focused onto the hind paw. Paw withdrawal latencies (PWL) were recorded in seconds (“s”). An automatic cut off point of 22.5 s was set to prevent tissue damage. The mean of 2-3 PWL was taken at each time point for both hind paws of each animal. The apparatus was calibrated to give a PWL of approximately 10 s before carrageenan administration.
After basal PWL were determined, animals receive an intraplantar 100 μL of 10 mg/mL) into the right hind paw. Lambda carrageenan (Sigma Chemical Co.) was dissolved in isotonic saline 5 minutes prior to injecting. PWL were reassessed following the same protocol 2 hours post carrageenan (this time point represented the start of peak hyperalgesia) to ascertain that hyperalgesia had developed. 6-(5-Carboxy-5-methyl-hexyloxy)-2,2-dimethyl-hexanoic acid, calcium salt was then administered orally via oral dosing needles 2.5 hours post carrageenan injection, and PWL were taken again at 30- or 60-minute intervals post drug administration for 6 hours.
Data consisted of the mean of 2-3 reads/paw for individual animals. Group data was the compiled individual means. Percent inhibition was calculated as follows for each time point: (mean drug treated−mean control)/(mean baseline−mean control)×100.

With `CC(C)(CCCCOCCCCC(C)(C)C(=O)[O-])C(=O)[O-].[Ca+2]` [CI-1027, 6-(5-carboxy-5-methyl-hexyloxy)-2,2-dimethyl-hexanoic acid, calcium salt] the “inhibition of change in hind paw weight distribution” value (“inhibition of change” for short) ([1]; 10 mg/kg PO 3 hours before IL-6/IL-6sR injection, 1 hour post injection (FIG. 6)) was 53±9%, the “inhibition of change” value ([1]; 10 mg/kg PO 3 hours before injection, repeat experiment, blinded readings (FIG. 7)) was 63±6% and the “inhibition of change” value ([1]; 30 mg/kg PO 3 hours before IL-6/IL-6sR injection, 1 hour post injection (FIG. 6)) was 74±8%. For the same compound, the “inhibition of change” value ([1]; 30 mg/kg PO 3 hours before injection, repeat experiment, blinded readings (FIG. 7)) was 71±10%, the “inhibition of change” value ([1]; 100 mg/kg PO 3 hours before IL-6/IL-6sR injection, 1 hour post injection (FIG. 6)) was 57±15% and the “change in hind paw weight distribution” value ([1]; 10, 30, 100 mg/kg PO, 3 and 6 hours post injection (6 and 9 hours post administration)) was “No significant effect”. For the same compound, the “Inhibition of Pain (% versus control), IL-6” value ([1]; single oral dose 30 mg/kg on Day 1, 4 hours post dose) was 71 ± 10%, the “inhibition of LTB4 expression” value [2] was “does not inhibit” and the “Inhibition of Pain (% versus control), CITH (paw withdrawal latency)” value [3] was 65 ± 20%.
